According to PubChem BioAssay AID248 (DTP/NCI, 2004):
Several values for one entry are separate records, joined by “and”; a condition that tells them apart may be missing. Equal entries are not always repeated. Toxic doses and inconclusive results are not listed. No stated cut-off is given here; in the data, active means T/C of 150% or more; inactive means T/C below 125%.

System: L1210 leukemia ip in BDF1 mice, survival T/C
Test: NCI In Vivo Anticancer Drug Screen. Data for tumor model L1210 Leukemia (intraperitoneal) in B6D2F1 (BDF1) mice
Settings: endpoint: mean survival time, higher = longer survival
Method in brief: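 Transplantable tumor model; survival measured in treated vs vehicle control mice. Value = treated/control.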

[1] = dose: 100.0 mg/kg/injection, schedule: Q01DX009 (ip), vehicle: Klucel (hydroxypropylcellulose) (HPC)
[2] = dose: 200.0 mg/kg/injection, schedule: Q01DX009 (ip), vehicle: Klucel (hydroxypropylcellulose) (HPC)
[3] = dose: 400.0 mg/kg/injection, schedule: Q01DX009 (ip), vehicle: Klucel (hydroxypropylcellulose) (HPC)
[4] = dose: 100.0 mg/kg/injection, schedule: Q04DX002 (ip), vehicle: saline
[5] = dose: 200.0 mg/kg/injection, schedule: Q04DX002 (ip), vehicle: saline
[6] = dose: 400.0 mg/kg/injection, schedule: Q04DX002 (ip), vehicle: saline
[7] = dose: 25.0 mg/kg/injection, schedule: Q01DX009 (ip), vehicle: other
[8] = dose: 100.0 mg/kg/injection, schedule: Q04DX003 (ip), vehicle: Klucel (hydroxypropylcellulose) (HPC)
[9] = dose: 200.0 mg/kg/injection, schedule: Q04DX003 (ip), vehicle: Klucel (hydroxypropylcellulose) (HPC)
[10] = dose: 400.0 mg/kg/injection, schedule: Q04DX003 (ip), vehicle: Klucel (hydroxypropylcellulose) (HPC)
[11] = dose: 100.0 mg/kg/injection, schedule: Q01DX001 (ip), vehicle: saline
[12] = dose: 200.0 mg/kg/injection, schedule: Q01DX001 (ip), vehicle: saline
[13] = dose: 400.0 mg/kg/injection, schedule: Q01DX001 (ip), vehicle: saline

Measured: T/C

O=C(O)c1c(Br)c(Br)c(Br)c(Br)c1C(=O)Nc1cc([N+](=O)[O-])ccc1O
inactive: [1] 106 % of control | [2] 122 % of control | [3] 101 % of control

CC(C)[CH2][Sn]([CH2]C(C)C)([CH2]C(C)C)[C](C)(C)C
inactive: [4] 94 % of control | [5] 90 % of control | [6] 100 % of control

FC(F)(F)c1nc2nc(Cl)c(Cl)nc2s1
inactive: dose: 0.5 mg/kg/injection, schedule: Q01DX009 (ip), vehicle: other 116 % of control | dose: 1.0 mg/kg/injection, schedule: Q01DX009 (ip), vehicle: other 106 % of control | dose: 2.0 mg/kg/injection, schedule: Q01DX009 (ip), vehicle: other 101 % of control | dose: 3.12 mg/kg/injection, schedule: Q01DX009 (ip), vehicle: other 114 % of control | dose: 4.0 mg/kg/injection, schedule: Q01DX009 (ip), vehicle: other 107 % of control | dose: 6.25 mg/kg/injection, schedule: Q01DX009 (ip), vehicle: other 103 % of control | dose: 12.5 mg/kg/injection, schedule: Q01DX009 (ip), vehicle: other 103 % of control | [7] 101 % of control and 103 % of control

COc1ccc(Cl)cc1NC(=O)Nc1cc(C)ccc1Cl
inactive: [1] 101 % of control | [8] 90 % of control | [2] 110 % of control | [9] 95 % of control | [3] 116 % of control | [10] 95 % of control

CCOC(=O)Nc1cc(Nc2ccc(Cl)cc2)c2nc(-c3ccc(Cl)cc3)c(-c3ccc(Cl)cc3)nc2n1
inactive: dose: 25.0 mg/kg/injection, schedule: Q04DX003 (ip), vehicle: Klucel (hydroxypropylcellulose) (HPC) 104 % of control | dose: 50.0 mg/kg/injection, schedule: Q04DX003 (ip), vehicle: Klucel (hydroxypropylcellulose) (HPC) 101 % of control | [8] 98 % of control

c1ccc(-c2nc3ccccc3s2)nc1
inactive: [8] 109 % of control | [9] 98 % of control | [10] 88 % of control

CCCCCCCCCCCC(=O)NC(=S)Nc1ccc(C(=O)OCC)cc1
inactive: [4] 93 % of control | [5] 108 % of control | [6] 108 % of control

CSc1ccc(NC(=O)Nc2ccc([N+](=O)[O-])cc2C)cc1
inactive: dose: 100.0 mg/kg/injection, schedule: Q04DX002 (ip), vehicle: saline with Tween-80 98 % of control | dose: 200.0 mg/kg/injection, schedule: Q04DX002 (ip), vehicle: saline with Tween-80 95 % of control | dose: 400.0 mg/kg/injection, schedule: Q04DX002 (ip), vehicle: saline with Tween-80 91 % of control

CC(=O)Nc1cccc(OC(=O)Nc2ccc(F)c(Cl)c2)c1
inactive: dose: 100.0 mg/kg/injection, schedule: Q04DX002 (ip), vehicle: Klucel (hydroxypropylcellulose) (HPC) 96 % of control | dose: 200.0 mg/kg/injection, schedule: Q04DX002 (ip), vehicle: Klucel (hydroxypropylcellulose) (HPC) 89 % of control | dose: 400.0 mg/kg/injection, schedule: Q04DX002 (ip), vehicle: Klucel (hydroxypropylcellulose) (HPC) 121 % of control

COc1ccccc1-c1cn(O)c2nc(=N)nc(N)c-2n1
inactive: [4] 97 % of control | [5] 94 % of control | [6] 111 % of control

CC(=O)Nc1ccc(/C=N\Nc2ccccn2)cc1
inactive: [11] 89 % of control | [12] 100 % of control | [13] 93 % of control

CC1CC(C)(C)NC(=O)O1 (configuration not stated)
inactive: [7] 93 % of control | dose: 25.0 mg/kg/injection, schedule: Q04DX003 (ip), vehicle: other 90 % of control | dose: 50.0 mg/kg/injection, schedule: Q01DX009 (ip), vehicle: other 92 % of control | dose: 50.0 mg/kg/injection, schedule: Q04DX003 (ip), vehicle: other 89 % of control | dose: 100.0 mg/kg/injection, schedule: Q01DX001 (ip), vehicle: other 103 % of control | dose: 100.0 mg/kg/injection, schedule: Q01DX009 (ip), vehicle: other 92 % of control | dose: 100.0 mg/kg/injection, schedule: Q04DX003 (ip), vehicle: other 90 % of control

c1cnc2nc3[nH]c4ccccc4c3nc2c1
inactive: dose: 25.0 mg/kg/injection, schedule: Q01DX009 (ip), vehicle: saline with Tween-80 92 % of control | dose: 50.0 mg/kg/injection, schedule: Q01DX001 (oral), vehicle: saline with Tween-80 107 % of control | dose: 50.0 mg/kg/injection, schedule: Q01DX009 (ip), vehicle: saline with Tween-80 92 % of control and 89 % of control | dose: 50.0 mg/kg/injection, schedule: Q04DX003 (ip), vehicle: saline with Tween-80 96 % of control | dose: 100.0 mg/kg/injection, schedule: Q01DX001 (oral), vehicle: saline with Tween-80 115 % of control | dose: 100.0 mg/kg/injection, schedule: Q01DX009 (ip), vehicle: saline with Tween-80 94 % of control and 91 % of control | dose: 100.0 mg/kg/injection, schedule: Q04DX003 (ip), vehicle: saline with Tween-80 88 % of control | dose: 200.0 mg/kg/injection, schedule: Q01DX001 (oral), vehicle: saline with Tween-80 110 % of control | dose: 200.0 mg/kg/injection, schedule: Q01DX009 (ip), vehicle: saline with Tween-80 92 % of control and 94 % of control | dose: 200.0 mg/kg/injection, schedule: Q04DX003 (ip), vehicle: saline with Tween-80 90 % of control | dose: 400.0 mg/kg/injection, schedule: Q01DX001 (oral), vehicle: saline with Tween-80 108 % of control | dose: 400.0 mg/kg/injection, schedule: Q01DX009 (ip), vehicle: saline with Tween-80 92 % of control | dose: 400.0 mg/kg/injection, schedule: Q04DX003 (ip), vehicle: saline with Tween-80 86 % of control | dose: 800.0 mg/kg/injection, schedule: Q01DX001 (oral), vehicle: saline with Tween-80 105 % of control

CCOC(=O)c1ccc(NCC(C)(C)N(C)C)cc1
inactive: dose: 12.0 mg/kg/injection, schedule: Q01DX009 (ip), vehicle: saline 93 % of control | dose: 12.0 mg/kg/injection, schedule: Q04DX003 (ip), vehicle: saline 93 % of control | dose: 25.0 mg/kg/injection, schedule: Q01DX009 (ip), vehicle: saline 89 % of control | dose: 25.0 mg/kg/injection, schedule: Q04DX003 (ip), vehicle: saline 98 % of control | dose: 50.0 mg/kg/injection, schedule: Q01DX009 (ip), vehicle: saline 90 % of control | dose: 50.0 mg/kg/injection, schedule: Q04DX003 (ip), vehicle: saline 95 % of control

Cc1ccc(CC(=O)c2c[nH]c3ccccc23)c(Cl)c1C
inactive: dose: 50.0 mg/kg/injection, schedule: Q01DX001 (ip), vehicle: saline 96 % of control | [11] 98 % of control | [12] 93 % of control | [13] 98 % of control

CC(=O)CN
inactive: dose: 100.0 mg/kg/injection, schedule: Q01DX009 (ip), vehicle: saline 111 % of control | dose: 200.0 mg/kg/injection, schedule: Q01DX009 (ip), vehicle: saline 104 % of control | dose: 400.0 mg/kg/injection, schedule: Q01DX009 (ip), vehicle: saline 108 % of control

N#CC1(C#N)OC1c1ccccc1Cl (configuration not stated)
inactive: dose: 10.0 mg/kg/injection, schedule: Q04DX002 (ip), vehicle: Klucel (hydroxypropylcellulose) (HPC) 100 % of control | dose: 20.0 mg/kg/injection, schedule: Q04DX002 (ip), vehicle: Klucel (hydroxypropylcellulose) (HPC) 100 % of control
